Experimental data: article PMC12073449, “Development of a Mechanism of Action-Reflective Cell-Based Reporter Gene Assay for Measuring Bioactivities of Therapeutic Glucagon-like Peptide-2 Analogues” (Molecules, 2025)
Ends that are not written are not given here.

Test system: HEK293-GLP-2R-Luc cells

HGEGTFSSELATILDALAARDFINWLIATKITDKKKKKK-NH2 [glepaglutide]
log2 (TD/Ctrl) CPEB2 (Qvalue 1.61 × 10^−6): 1.107 | log2 (TD/Ctrl) GPAT3 (Qvalue 1.61 × 10^−6): 1.067 | log2 (TD/Ctrl) LBH (Qvalue 1.62 × 10^−11): 1.387 | log2 (TD/Ctrl) CSRNP1 (Qvalue 1.62 × 10^−22): 2.05 | log2 (TD/Ctrl) USP36 (Qvalue 1.63 × 10^−11): 1.039 | log2 (TD/Ctrl) DNER (Qvalue 1.71 × 10^−14): 3.018 | log2 (TD/Ctrl) LOC102724428 (Qvalue 1.72 × 10^−7): 1.373 | log2 (TD/Ctrl) RELB (Qvalue 1.72 × 10^−7): 1.9665 | log2 (TD/Ctrl) BMF (Qvalue 1.77 × 10^−4): −1.178 | log2 (TD/Ctrl) PBX1 (Qvalue 1.77 × 10^−11): −1.095 | log2 (TD/Ctrl) TNFAIP3 (Qvalue 1.80 × 10^−7): 1.227 | log2 (TD/Ctrl) SCN9A (Qvalue 1.83 × 10^−18): −1.8 | log2 (TD/Ctrl) INPP5D (Qvalue 1.84 × 10^−5): −2.417 | log2 (TD/Ctrl) ICAM5 (Qvalue 1.87 × 10^−4): 1.744 | log2 (TD/Ctrl) ZNF503 (Qvalue 1.87 × 10^−11): −1.2971 | log2 (TD/Ctrl) MFSD2A (Qvalue 1.88 × 10^−5): 1.193 | log2 (TD/Ctrl) ADA (Qvalue 1.89 × 10^−4): 1.023 | log2 (TD/Ctrl) SV2C (Qvalue 1.91 × 10^−39): 6.845 | log2 (TD/Ctrl) ELL2 (Qvalue 1.93 × 10^−15): 1.192 | log2 (TD/Ctrl) CD44 (Qvalue 1.93 × 10^−23): 2.115 | log2 (TD/Ctrl) CYB5D2 (Qvalue 1.97 × 10^−6): −1.056 | log2 (TD/Ctrl) DOK3 (Qvalue 2.01 × 10^−5): −1.636 | log2 (TD/Ctrl) TFPI2 (Qvalue 2.01 × 10^−13): 2.377 | log2 (TD/Ctrl) TUBB2A (Qvalue 2.02 × 10^−19): 1.401 | log2 (TD/Ctrl) SERTAD1 (Qvalue 2.03 × 10^−14): 1.452 | log2 (TD/Ctrl) TRIM47 (Qvalue 2.06 × 10^−4): 1.231 | log2 (TD/Ctrl) CD68 (Qvalue 2.06 × 10^−17): 2.012 | log2 (TD/Ctrl) FRMPD4 (Qvalue 2.07 × 10^−4): −1.078 | log2 (TD/Ctrl) ETV4 (Qvalue 2.09 × 10^−50): 3.646 | log2 (TD/Ctrl) TUBA4A (Qvalue 2.12 × 10^−4): 1.633 | log2 (TD/Ctrl) SLC6A17 (Qvalue 2.12 × 10^−19): 2.784 | log2 (TD/Ctrl) NAV2 (Qvalue 2.21 × 10^−5): 1.102 | log2 (TD/Ctrl) SOX2 (Qvalue 2.21 × 10^−5): −1.189 | log2 (TD/Ctrl) IL6R (Qvalue 2.27 × 10^−19): 1.742 | log2 (TD/Ctrl) GPRC5A (Qvalue 2.28 × 10^−8): 1.328 | log2 (TD/Ctrl) SLC25A25 (Qvalue 2.28 × 10^−9): 1.117 | log2 (TD/Ctrl) UPP1 (Qvalue 2.29 × 10^−9): 1.296 | log2 (TD/Ctrl) OLIG2 (Qvalue 2.31 × 10^−9): 2.054 | log2 (TD/Ctrl) TNC (Qvalue 2.37 × 10^−34): 1.657 | log2 (TD/Ctrl) GPR50 (Qvalue 2.38 × 10^−8): 2.002 | log2 (TD/Ctrl) CPA4 (Qvalue 2.40 × 10^−4): 5.506 | log2 (TD/Ctrl) FAM217B (Qvalue 2.42 × 10^−6): −1.106 | log2 (TD/Ctrl) CCDC9 (Qvalue 2.50 × 10^−4): 1.137 | log2 (TD/Ctrl) PLK3 (Qvalue 2.50 × 10^−4): 1.391 | log2 (TD/Ctrl) TCIM (Qvalue 2.51 × 10^−19): 7.037 | log2 (TD/Ctrl) NRP1 (Qvalue 2.55 × 10^−11): −1.191 | log2 (TD/Ctrl) EPHA2 (Qvalue 2.56 × 10^−11): 1.303 | log2 (TD/Ctrl) DUSP4 (Qvalue 2.57 × 10^−12): 1.926 | log2 (TD/Ctrl) MAFF (Qvalue 2.58 × 10^−27): 3.639 | log2 (TD/Ctrl) AMOT (Qvalue 2.58 × 10^−33): −1.62 | log2 (TD/Ctrl) TNFRSF12A (Qvalue 2.59 × 10^−23): 2.183 | log2 (TD/Ctrl) ZFP36 (Qvalue 2.68 × 10^−12): 1.676 | log2 (TD/Ctrl) ARL14 (Qvalue 2.71 × 10^−4): 3.565 | log2 (TD/Ctrl) JUNB (Qvalue 2.71 × 10^−23): 2.192 | log2 (TD/Ctrl) C1GALT1C1 (Qvalue 2.74 × 10^−4): −1.022 | log2 (TD/Ctrl) UBALD2 (Qvalue 2.76 × 10^−6): 1.053 | log2 (TD/Ctrl) ZNF33B (Qvalue 2.82 × 10^−4): −1.021 | log2 (TD/Ctrl) YPEL4 (Qvalue 2.87 × 10^−4): 2.621 | log2 (TD/Ctrl) WNT5A (Qvalue 2.87 × 10^−7): −1.332 | log2 (TD/Ctrl) FLNC (Qvalue 2.88 × 10^−7): 1.243 | log2 (TD/Ctrl) NFIL3 (Qvalue 2.91 × 10^−8): 1.177 | log2 (TD/Ctrl) TXNIP (Qvalue 2.97 × 10^−31): −1.9141 | log2 (TD/Ctrl) GLA (Qvalue 2.98 × 10^−32): 1.68 | log2 (TD/Ctrl) VAV1 (Qvalue 3.01 × 10^−4): 1.198 | log2 (TD/Ctrl) RGS2 (Qvalue 3.01 × 10^−9): 1.337 | log2 (TD/Ctrl) NREP (Qvalue 3.01 × 10^−13): −1.339 | log2 (TD/Ctrl) B3GAT1 (Qvalue 3.15 × 10^−7): 1.485 | log2 (TD/Ctrl) OLFM2 (Qvalue 3.15 × 10^−7): 1.732 | log2 (TD/Ctrl) IL15RA (Qvalue 3.17 × 10^−4): 1.677 | log2 (TD/Ctrl) TNFRSF9 (Qvalue 3.27 × 10^−6): 1.903 | log2 (TD/Ctrl) RASD1 (Qvalue 3.31 × 10^−6): 2.273 | log2 (TD/Ctrl) TSC22D3 (Qvalue 3.35 × 10^−6): 1.67 | log2 (TD/Ctrl) MSANTD3-TMEFF1 (Qvalue 3.37 × 10^−6): 1.009 | log2 (TD/Ctrl) SKIDA1 (Qvalue 3.39 × 10^−5): −1.407 | log2 (TD/Ctrl) USH1C (Qvalue 3.44 × 10^−6): 2.547 | log2 (TD/Ctrl) TMEM231 (Qvalue 3.45 × 10^−5): 1.1218 | log2 (TD/Ctrl) COL12A1 (Qvalue 3.45 × 10^−9): 1.157 | log2 (TD/Ctrl) BEGAIN (Qvalue 3.50 × 10^−4): 1.974 | log2 (TD/Ctrl) PHLDA2 (Qvalue 3.51 × 10^−4): 1.79 | log2 (TD/Ctrl) PCDH7 (Qvalue 3.52 × 10^−9): −1.185 | log2 (TD/Ctrl) ULBP2 (Qvalue 3.54 × 10^−4): 1.312 | log2 (TD/Ctrl) PHF21B (Qvalue 3.56 × 10^−4): 1.711 | log2 (TD/Ctrl) JUN (Qvalue 3.59 × 10^−15): 1.216 | log2 (TD/Ctrl) PIM1 (Qvalue 3.61 × 10^−6): 1.177 | log2 (TD/Ctrl) CSGALNACT1 (Qvalue 3.63 × 10^−4): 2.392 | log2 (TD/Ctrl) MN1 (Qvalue 3.74 × 10^−4): 1.348 | log2 (TD/Ctrl) ATF3 (Qvalue 3.77 × 10^−12): 2.527 | log2 (TD/Ctrl) CASP9 (Qvalue 3.78 × 10^−13): 1.439 | log2 (TD/Ctrl) C11orf96 (Qvalue 3.88 × 10^−22): 4.461 | log2 (TD/Ctrl) FHL3 (Qvalue 3.94 × 10^−5): 1.045 | log2 (TD/Ctrl) MRC2 (Qvalue 4.00 × 10^−5): 1.244 | log2 (TD/Ctrl) SH2D3C (Qvalue 4.00 × 10^−6): 2.239
